Measured values: US20120028995A1, “NOVEL COMPOUNDS FOR MEDICAL USE AS PEPTIDASE EFFECTORS” (IMTM GMBH, priority 2010, published 2012)

Experiments:
[1] = tested on: purified, recombinant DP8 and DP9; experiment: Inhibition of enzymatic activity of DP8/9; format: biochemical; settings: highest test item concentration 25 μM; for IC50: read-out: meas. IC50 (DP8/9)
Description: (§1) The inhibition of the enzymatic activity of DPIV and related enzymes was measured by using purified, recombinant human DPIV (purified from transfected Sf9 cells, final enzyme concentration approx. 1 nM) as well as purified, recombinant DP8 and DP9 (purchased from Biomol). The assay was performed in 0.05M TRIS/HCl puffer pH 7.5, supplemented with 0.05% Triton (v/v), 0.05% BSA (w/v), 2 mM MgCl2.
(§2) The enzymatic activity of DPIV was assessed by the hydrolysis of the fluorogenic substrates H-Gly-Pro-4-amino-7-methyl coumarine (abbreviation of fluorogenic group AMC; purchased from Bachem) or (Ala-Pro)2-Rhodamine 110 (abbreviation R110). The final substrate concentrations were 50 μM or 1 μM, respectively.
(§3) The assay was performed in white microtitre plates for fluorescence measurements. The test items, substrate and enzyme were diluted in assay buffer. The highest test item concentration used was 25 μM. For the calculation of IC50 values, at least 16 log 2-dilutions of each test item were analyzed. As controls, the DPIV activity in the absence of test items as well as the spontaneous hydrolysis of the substrate was determined.
(§4) The release of the fluorescent hydrolysis product AMC was measured at an excitation wavelength of 380 nm and an emission wavelength of 460 nm by using a microtitre fluorescence reader immediately after substrate addition as well as after 30, 60 and 120 min. The hydrolysis of the substrate (Ala-Pro)2-Rhodamine 110 was determined at an exitation wavelength of 488 nm and emission wavelength of 530 nm.

SZ95 cells = experiment: Inhibition of DNA synthesis and proliferation of immortalized human sebocytes SZ95; format: cell-based; settings: Homo sapiens, EGF-stimulated SZ95 sebocytes, tritium thymidine incorporation; read-out: Supp. DNA Synt. SZ95 IC50
Description: The immortalized human sebocyte line SZ95 was provided by Prof. C Zouboulis [C C Zouboulis, H Seltmann, H Neitzel, C E Orfanos, Establishment and characterization of an immortalized human sebaceous gland cell line (SZ95). J. Invest. Dermatol. 113(6):1011-1020 (1999), the entire disclosure of which is incorporated by reference herein]. These adherent growing cells were cultured in serum-free Sebomed Complete (Biochrom). Recombinant EGF was added in order to stimulate DNA synthesis and proliferation of the SZ95 cells. Test items were added in concentrations from 0.1 up to 100 μM.
The DNA synthesis of proliferating cells was detected by incorporation of radiolabelled tritium thymidine (3HT) and counting at a beta counter. Based on these raw data the relative proliferation response in relation to cells cultured in the absence of test compound (100% control) was calculated. IC50 values of proliferation suppression were assessed by computer-assisted graphical evaluation.

NHEK cells = experiment: Inhibition of DNA synthesis and proliferation of normal human epidermal keratinocytes (NHEK); format: cell-based; settings: Homo sapiens, NHEK, 48 h, EGF-stimulated NHEK, BrdU incorporation, read-out: Supp. DNA Synt. NHEK IC50
Description: NHEK cells (primary cells from person) were purchased from PromoCell. For these assay the adherent cells were cultured in serum-free Keratinocyte Growth medium 2 supplemented with epidermal growth factor (EGF) and bovine pituitary extract for 48 hours in flat-bottom microtiter plates. EGF stimulates the DNA synthesis and proliferation of these cells. Test items were added in concentrations from 0.1 up to 100 μM.
The DNA synthesis was assessed by incorporation of bromdesoxyuridine (BrdU) and subsequent detection of BrdU by ELISA technique. Based on these raw data the relative proliferation response in relation to cells cultured in the absence of test compound (100% control) was calculated. IC50 values of proliferation suppression were assessed by computer-assisted graphical evaluation.

[2] = biological target: T1, cytosolic aminopeptidase (cAAP) purified from Jurkat cells (Homo sapiens, UniProt P55786); experiment: Inhibition of enzymatic activity of cytosolic aminopeptidase (cAAP); format: biochemical; settings: highest test item concentration 25 μM; for IC50: read-out: meas. IC50 (cAAP)
T1 construct: The cytosolic aminopeptidase (cAAP) was purified from Jurkat cells; endogenous in cells; host or cells: Jurkat cells (enzyme purified from them)

[3] = biological target: T2, purified, recombinant human DPIV (Homo sapiens, UniProt P27487); experiment: Inhibition of enzymatic activity of DPIV (fluorogenic substrate hydrolysis); format: biochemical; settings: highest test item concentration 25 μM; for IC50: read-out: meas. IC50 (DPIV)
T2 construct: made in house; host or cells: Sf9 insect cells
Description: as §1, §2, §3, §4

[4] = biological target: T3, aminopeptidase N (APN), purified recombinant human enzyme (Homo sapiens, UniProt P15144); experiment: Inhibition of enzymatic activity of aminopeptidase N (fluorogenic substrate hydrolysis); format: biochemical; settings: highest test item concentration 25 μM; for IC50: read-out: meas. IC50 (APN)
T3 construct: made in house; host or cells: ECV cells (transfected)
Description: The inhibition of the enzymatic activity of aminopeptidase N (APN) was measured by using purified, recombinant human enzyme (purified from transfected ECV cells, final enzyme concentration approx. 1 nM). […] The assay was performed in 0.05M TRIS/HCl puffer pH 7.5, supplemented with 0.05% Triton (v/v), 0.05% BSA (w/v), 2 mM MgCl2.
The aminopeptidase acitivities wer assessed by the hydrolysis of the fluorogenic substrates H-Ala-4-amino-7-methyl coumarine (abbreviation of fluorogenic group AMC; purchased from Bachem) or (Ala-)2-Rhodamine 110 (abbreviation R110). The final substrate concentrations were again 50 and 1 μM, respectively.
as §3
The release of the fluorescent hydrolysis products AMC and R110 was measured as described above for DPIV substrates.

T lymphocytes (T cells) = experiment: Suppression of DNA synthesis of PHA-stimulated T lymphocytes; format: cell-based; settings: Homo sapiens, T-cell, 48 h, tritium thymidine incorporation, read-out: Supp. DNA Synt. T-cell IC50
Description: Peripheral blood mononuclear cells (PBMC) from healthy human volunteers were freshly isolated by density gradient centrifugation. T lymphocytes (T cells) were isolated from PBMC fractions via nylon wool adherence. Both cell populations were cultured in serum free lymphocyte medium (AIMV medium, Invitrogen) and stimulated by addition of 1 μg/ml Phytohemagglutinine for 48 hours in 96 well flat-bottom microtiter plates. Test compounds were added at concentration ranges from 0.1 up to 250 μM over the total assay period.
DNA synthesis of proliferating PBMC was assessed by incorporation of nucleotide analogue bromdesoxyuridine (BrdU) and subsequent detection of BrdU by ELISA technique (Cell Proliferation Biotrak™ ELISA system, GE Health Care) according to the protocol of the manufacturer. DNA synthesis of proliferating T cells was determined by incorporation of radio labelled tritium thymidine and subsequent radio detection.
Data output was based on raw data and calculation of relative proliferation response in relation to PHA-activated T cells in the absence of test compound (100% control). The IC50 value of proliferation suppression was assessed by graphical evaluation.

T3 sequence (P15144 whole entry): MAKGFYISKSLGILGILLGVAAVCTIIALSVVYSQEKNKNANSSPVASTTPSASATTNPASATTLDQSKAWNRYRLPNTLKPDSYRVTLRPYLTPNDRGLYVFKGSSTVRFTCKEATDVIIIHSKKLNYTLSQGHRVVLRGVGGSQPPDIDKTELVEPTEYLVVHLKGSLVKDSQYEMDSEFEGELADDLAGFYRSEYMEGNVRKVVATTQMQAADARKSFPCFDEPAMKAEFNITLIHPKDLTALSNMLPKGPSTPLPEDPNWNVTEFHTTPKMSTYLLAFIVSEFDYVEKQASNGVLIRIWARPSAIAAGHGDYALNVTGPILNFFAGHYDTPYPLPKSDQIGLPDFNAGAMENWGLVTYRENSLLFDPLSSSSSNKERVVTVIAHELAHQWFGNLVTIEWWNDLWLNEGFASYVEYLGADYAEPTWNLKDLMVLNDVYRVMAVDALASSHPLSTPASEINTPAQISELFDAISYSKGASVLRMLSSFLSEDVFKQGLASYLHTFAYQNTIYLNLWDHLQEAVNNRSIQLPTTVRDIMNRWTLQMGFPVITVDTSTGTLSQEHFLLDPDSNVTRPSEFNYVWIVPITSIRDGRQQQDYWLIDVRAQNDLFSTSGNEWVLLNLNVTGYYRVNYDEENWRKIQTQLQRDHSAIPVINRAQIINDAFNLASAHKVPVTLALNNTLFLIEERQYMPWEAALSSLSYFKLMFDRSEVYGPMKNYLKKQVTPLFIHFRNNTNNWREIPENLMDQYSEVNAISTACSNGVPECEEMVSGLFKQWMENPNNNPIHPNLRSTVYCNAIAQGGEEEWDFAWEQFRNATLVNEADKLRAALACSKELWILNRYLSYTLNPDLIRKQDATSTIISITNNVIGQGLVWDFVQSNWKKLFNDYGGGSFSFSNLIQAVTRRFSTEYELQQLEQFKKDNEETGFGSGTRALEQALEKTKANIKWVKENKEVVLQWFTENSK
T2 sequence (P27487 whole entry): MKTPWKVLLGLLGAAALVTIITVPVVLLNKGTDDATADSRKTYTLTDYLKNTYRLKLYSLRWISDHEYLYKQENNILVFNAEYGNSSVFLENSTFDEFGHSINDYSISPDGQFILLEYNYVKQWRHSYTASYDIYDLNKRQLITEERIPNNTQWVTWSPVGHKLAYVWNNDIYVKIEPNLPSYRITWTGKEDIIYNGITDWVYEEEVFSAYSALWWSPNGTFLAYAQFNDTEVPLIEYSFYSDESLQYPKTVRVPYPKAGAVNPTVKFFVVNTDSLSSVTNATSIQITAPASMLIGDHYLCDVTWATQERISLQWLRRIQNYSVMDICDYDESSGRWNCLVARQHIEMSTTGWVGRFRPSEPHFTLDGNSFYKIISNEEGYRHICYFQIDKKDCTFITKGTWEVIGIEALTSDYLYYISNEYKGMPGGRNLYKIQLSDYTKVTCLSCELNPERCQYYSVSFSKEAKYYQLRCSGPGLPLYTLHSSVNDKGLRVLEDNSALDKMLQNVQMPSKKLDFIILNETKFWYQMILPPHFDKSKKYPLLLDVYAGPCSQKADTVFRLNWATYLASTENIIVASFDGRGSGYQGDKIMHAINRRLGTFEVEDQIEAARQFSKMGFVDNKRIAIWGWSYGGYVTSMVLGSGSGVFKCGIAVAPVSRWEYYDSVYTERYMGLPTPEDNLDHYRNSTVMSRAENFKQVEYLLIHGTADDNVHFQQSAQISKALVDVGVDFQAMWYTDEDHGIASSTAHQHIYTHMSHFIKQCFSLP
T1 sequence (P55786 whole entry): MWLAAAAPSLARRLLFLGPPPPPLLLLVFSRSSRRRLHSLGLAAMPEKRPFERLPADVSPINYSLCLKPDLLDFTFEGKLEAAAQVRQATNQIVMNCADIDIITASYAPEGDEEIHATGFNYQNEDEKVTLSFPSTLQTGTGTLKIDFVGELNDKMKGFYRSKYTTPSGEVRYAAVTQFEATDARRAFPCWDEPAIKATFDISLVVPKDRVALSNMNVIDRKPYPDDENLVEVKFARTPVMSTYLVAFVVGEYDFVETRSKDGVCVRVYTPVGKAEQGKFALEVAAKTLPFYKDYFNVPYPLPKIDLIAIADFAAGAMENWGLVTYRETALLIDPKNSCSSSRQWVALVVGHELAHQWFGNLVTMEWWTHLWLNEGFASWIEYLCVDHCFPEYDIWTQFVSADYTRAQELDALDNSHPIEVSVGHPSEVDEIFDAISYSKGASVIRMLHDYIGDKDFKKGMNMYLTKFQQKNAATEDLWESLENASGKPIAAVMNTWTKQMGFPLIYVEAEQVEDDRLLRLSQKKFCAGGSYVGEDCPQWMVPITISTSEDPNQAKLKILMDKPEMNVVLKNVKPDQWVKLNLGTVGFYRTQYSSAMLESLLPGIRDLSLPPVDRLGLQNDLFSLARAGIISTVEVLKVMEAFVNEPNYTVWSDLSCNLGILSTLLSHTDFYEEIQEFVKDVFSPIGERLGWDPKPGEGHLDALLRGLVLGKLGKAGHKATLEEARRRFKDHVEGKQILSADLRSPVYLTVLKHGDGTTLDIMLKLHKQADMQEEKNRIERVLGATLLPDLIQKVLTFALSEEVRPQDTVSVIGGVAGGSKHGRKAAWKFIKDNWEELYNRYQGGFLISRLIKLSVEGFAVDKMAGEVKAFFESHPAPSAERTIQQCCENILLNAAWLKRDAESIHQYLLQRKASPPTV

Structure (SMILES)	IC50 [1] [µM]	IC50 (SZ95 cells) [µM]	IC50 (NHEK cells) [µM]	IC50 [2] [µM]	meas. IC50 (DPIV) [3]	IC50 [4] [µM]	IC50 (T lymphocytes (T cells)) [µM]	meas. IC50 (DP8/9) [1]	meas. IC50 (cAAP) [2]	meas. IC50 (APN) [4]	IC50 [3] [µM]
CC(C)(CNC(=O)CC(Cc1cc(F)ccc1F)NC(=O)OCc1ccccc1)CNC(=O)C(O)C(N)COCc1ccccc1 (centres unmarked) [Compound C19.026]	7.3	22.7	8.9	0.5	No in- hibition	1	12.2				
CC(C)(C)OC(=O)NC(CCCCNS(=O)(=O)c1cccc(NC(=O)C(O)C(Cc2ccccc2)NC(=O)OC(C)(C)C)c1)C(=O)N1CCSC1 (centres unmarked) [Compound C21.005]			15.3		no in- hibition		11.4	no in- hibition	no in- hibition	no in- hibition	
CC(C)(CNC(=O)CC(N)Cc1cc(F)ccc1F)CNC(=O)C(O)C(N)COCc1ccccc1 (centres unmarked) [Compound C19.022]	1.2										
NC(CNS(=O)(=O)CCCNC(=O)C(O)C(N)Cc1ccccc1)Cc1cc(F)ccc1F (centres unmarked) [Compound C26.001]	7.37		≥ 135	0.09		0.07	200				0.58
CC(C)(CNC(=O)CC(N)Cc1cc(F)ccc1F)CNC(=O)C(O)C(N)COCc1ccccc1 (centres unmarked) [Compound C19.001]	1.25										
CC(C)(C)OC(=O)NC(CNS(=O)(=O)CCCNC(=O)C(O)C(Cc1ccccc1)NC(=O)OC(C)(C)C)Cc1cc(F)ccc1F (centres unmarked) [Compound C26.002]			18.1				200	no in- hibition	no in- hibition	no in- hibition	6.52
NC(CNC(=O)CCCNC(=O)C(O)C(N)Cc1ccccc1)Cc1cc(F)ccc1F (centres unmarked) [Compound C26.005]			28.9	0.13	no in- hibition	0.09	27.3				
CC(=O)NC(Cc1ccccc1)C(O)C(=O)NCCCS(=O)(=O)NCC(Cc1cc(F)ccc1F)NC(=O)OC(C)(C)C (centres unmarked) [Compound C26.004]			≥ 106		no in- hibition		70	no in- hibition	no in- hibition	no in- hibition	
CC(C)(CNC(=O)CC(N)Cc1cc(F)ccc1F)CNC(=O)C(O)C(N)Cn1cnc2cncnc21 (centres unmarked) [Compound C18.001]	16	≥ 156		1		0.91	29.8				0.247
CC(=O)NC(Cc1ccccc1)C(O)C(=O)NCCCS(=O)(=O)NCC(N)Cc1cc(F)ccc1F (centres unmarked) [Compound C26.003]			≥ 167	0.25		0.19	70	no in- hibition			0.36
NC(Cc1cc(F)ccc1F)CS(=O)(=O)NCCCCNC(=O)C(O)C(N)Cc1ccccc1 (centres unmarked) [Compound C26.007]		7.3			no in- hibition		3.5			no in- hibition	
NC(CNC(=O)CCCNC(=O)C(O)C(N)Cc1ccccc1)Cc1cc(F)ccc1F (centres unmarked) [Compound C26.008]						0.01					0.9
NC(CCCCNS(=O)(=O)c1cccc(NC(=O)C(O)C(N)Cc2ccccc2)c1)C(=O)N1CCSC1 (centres unmarked) [Compound C21.006]	0.11		66.2	0.12		0.89	157				0.05
CC(C)(C)OC(=O)NC(CNC(=O)c1cccc(NC(=O)C(O)C(N)Cc2ccc(-c3cccnc3)cc2)c1)Cc1cc(F)ccc1F (centres unmarked) [Compound C-125]		13.7	4.4	0.005	no in- hibition	0.094	12.9				
CCOC(=O)C(O[Si](C)(C)C(C)(C)C)C(Cc1ccc(-c2cccnc2)cc1)NC(=O)OCc1ccccc1 (centres unmarked) [Compound C26.006]		7.9	1.9		no in- hibition		3.8		no in- hibition	no in- hibition	
CC(C)(C)OC(=O)NC(CNC(=O)CCCNC(=O)C(O)C(Cc1ccccc1)NC(=O)OC(C)(C)C)Cc1cc(F)ccc1F (centres unmarked) [Compound C26.009]					no in- hibition					no in- hibition	
CC(C)(CNC(=O)CC(N)Cc1cc(F)ccc1F)CNC(=O)C(O)C(N)COCc1ccccc1 (centres unmarked) [Compound C19.020]	1.2										
CC(C)(CNC(=O)CC(N)Cc1cc(F)ccc1F)CNC(=O)C(O)C(N)CO (centres unmarked) [Compound C19.003]	3.8	81.4		0.37		0.92	81.2				0.33
